Reference: patent US20160102052A1, “Use of Cysteamine in Treating Infections caused by Yeasts/Moulds” (priority 2014, published 2016)
Like-named read-outs stand apart in the source and are kept apart here.

System: Exophiala dermatitidis CA01
Assay: Broth microdilution chequerboard analysis of Lynovex (NM001) in combination with clinical antifungals
Type: cell-based
Settings: for MIC: Exophiala dermatitidis, CA01, 72 h, antifungal in isolation, read-out: Antifungal MIC100; for MIC / Antifungal MIC100 in Combination: 72 h; for MIC / Antifungal MIC100 in Combination / Antifungal MIC50 in Combination: 35° C.; for FICI: antifungal with Lynovex (NM001), <0.5 Synergy, 0.5-1 Additive, >1 Indifference; for Antifungal MIC100 in Combination / Antifungal MIC50 in Combination: in combination with Lynovex (NM001)
Procedure: The aim of the experiment was to determine the effect of Lynovex (NM001) on the antifungal drug susceptibility of Exophiala dermatitidis CA01. Microtitre plates were prepared following CLSI recommendations for broth microdilution chequerboard method. These plates contained a serial doubling dilution of Lynovex (NM001) combined with serial doubling dilutions of antifungals drugs; Fluconazole, Itraconazole, Caspofungin and Amphotericin B. […] These were incubated at 35° C. and read at 72 h, 96 h, 120 h and 144 h on the BioTek plate reader. […] Three independent E. dermatitidis CA01 cultures were grown on PDA slope for 6 days at 35° C. • 7. Cultures were removed from incubator. 2 ml sterile 0.15M NaCl added to the overnight culture and cells harvested from the surface of the agar. Cells placed in fresh bijou tube. • 8. The cultures were allowed to rest for up to 10 minutes, allowing any hyphae to settle to the bottom. The top layer of conidia was removed into fresh bijou. Hyphae were discarded. • 9. […] This is continued to F12 where 100 μl is removed and discarded. • f. This dilution series was repeated in rows G-H for the remaining 2 cultures • g. Plate read at OD530 on BioTek • h. […] This preparation step occurs in two parts. First, Lynovex (NM001) and antifungals are serially diluted, down and across microtitre plates, respectively. Equal volumes of Lynovex and antifungal are then combined in a fresh microtitre plate, prior to inoculation. […] Stock solutions of Lynovex and antifungals were prepared at 4× desired concentrations. The plate layout at the end of this protocol is the final concentration in the plate following the combination of Lynovex and antifungals and the addition of the inocula. […] All other wells contain 150 μl sterile dH2O. • 9. Serial doubling dilutions are carried out from A to B whereby 150 μl is removed from A and placed into B and mixed well. Then take 150 μl B and place in C and mix well. This is repeated down to row G where the final 150 μl is discarded. […] The same procedure is repeated for the other 4 antifungals, carrying the dilutions across the plate i.e. […] At the final dilution in column 10, the final 150 μl is discarded. […] Inoculating Plates with E. dermatitidis CA01 • 6. Add 100 μl (total volume 200 μl) of the prepared E. dermatitidis CA01 culture to the all wells on the plate except wells H12. […] H12 will contain 100 μl water and 100 μl 2×RPMI-1640 alone, constituting an uninoculated control. • 8. The plate is read in the BioTek at OD530. • 9. Plates are then placed in a plastic box containing a Petri dish of water, sealed and incubated at 35° C. The presence of the water in the dish or on the tissue provides and environment of relatively high humidity. • 10. OD530 is then read at 72 h, 96 h, 120 h and 144 h and raw data processed using Microsoft Excel. • 11. Fractional Inhibitory Concentration (FIC) Index values are generated using MIC100 for 72 h data and MIC50 for later time points using the following formula: […]

MIC (GEOMEAN) [µg/mL] | MIC (MEAN) [µg/mL] | MIC (Range) [µg/mL] | Antifungal MIC100 in Combination (GEOMEAN) [µg/mL] | Antifungal MIC50 in Combination (GEOMEAN, 96 h) [µg/mL] | Antifungal MIC50 in Combination (GEOMEAN, 120 h) [µg/mL] | Antifungal MIC50 in Combination (GEOMEAN, 144 h) [µg/mL] | Antifungal MIC100 in Combination (MEAN) [µg/mL] | Antifungal MIC50 in Combination (MEAN, 96 h) [µg/mL] | Antifungal MIC50 in Combination (MEAN, 120 h) [µg/mL] | Antifungal MIC50 in Combination (MEAN, 144 h) [µg/mL] | Antifungal MIC100 in Combination (Range) [µg/mL] | Structure (SMILES) | FICI (GEOMEAN, MIC50, 96 h) | FICI (GEOMEAN, MIC50, 120 h) | FICI (GEOMEAN, MIC50, 144 h) | FICI (GEOMEAN, MIC100, 72 h) | FICI (MEAN, MIC50, 96 h) | FICI (MEAN, MIC50, 120 h) | FICI (MEAN, MIC50, 144 h) | FICI (MEAN, MIC100, 72 h) | also measured
4.5 | 4.7 | 4 to 8 | 0.14 | 0.37 | 0.19 | 0.20 | 0.24 | 0.74 | 0.33 | 0.27 | 0.03 to 0.5 | CCC(C)n1ncn(-c2ccc(N3CCN(c4ccc(OCC5COC(Cn6cncn6)(c6ccc(Cl)cc6Cl)O5)cc4)CC3)cc2)c1=O (stereo not drawn) [Itraconazole] | 0.27 (7) | 0.18 (5) | 0.18 (3) | 0.18 (5) | 0.32 (7) | 0.20 (5) | 0.19 (3) | 0.19 (5) | Antifungal MIC50 in Combination (Range, 96 h): 0.06 to 2 µg/mL; Antifungal MIC50 in Combination (Range, 120 h): 0.06 to 1 µg/mL; Antifungal MIC50 in Combination (Range, 144 h): 0.06 to 0.5 µg/mL
250 | 250 | 250 | 25 | 35 | 44 | 63 | 34 | 51 | 59 | 98 | 7.81 to 62.5 | OC(Cn1cncn1)(Cn1cncn1)c1ccc(F)cc1F [Fluconazole] | 0.44 (6) | 0.41 (4) | 0.53 (4) | 0.42 (3) | 0.45 (6) | 0.42 (4) | 0.55 (4) | 0.43 (3) | Antifungal MIC50 in Combination (Range, 96 h): 7.81 to 125 µg/mL; Antifungal MIC50 in Combination (Range, 120 h): 15.63 to 125 µg/mL; Antifungal MIC50 in Combination (Range, 144 h): 15.63 to 250 µg/mL
25 | 26 | 15.6 to 31.2 | 2.0 | 11.84 | 1.95 | 3.91 | 2.0 | 14.84 | 4.20 | 6.51 | 2.0 | CC[C@H](C)C[C@H](C)CCCCCCCCC(=O)N[C@H]1C[C@@H](O)[C@@H](NCCN)NC(=O)[C@@H]2[C@@H](O)CCN2C(=O)[C@H]([C@H](O)CCN)NC(=O)[C@H]([C@H](O)[C@@H](O)c2ccc(O)cc2)NC(=O)[C@@H]2C[C@@H](O)CN2C(=O)[C@H]([C@@H](C)O)NC1=O [Caspofungin] | 0.48 (4) | 0.24 (4) | 0.41 (3) | 0.25 (1) | 0.58 (4) | 0.27 (4) | 0.52 (3) | 0.25 (1) | Antifungal MIC50 in Combination (Range, 96 h): 3.91 to 31.25 µg/mL; Antifungal MIC50 in Combination (Range, 120 h): 0.49 to 15.625 µg/mL; Antifungal MIC50 in Combination (Range, 144 h): 0.23 µg/mL
